Where “and” joins values, the source holds several entries; their conditions need not be identical. Equal entries are not always repeated.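 Step 1: Grow cells in 96-well plates. Step 2: Expose to compound for 48 hours at 5 concentrations. Step 3: Interpolate endpoints linearly; if unreached, use highest concentration. Abbreviation: GI50, concentration required for 50% inhibition of growth. TGI: concentration producing complete growth inhibition.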
Legend:
Assay in all cases: NCI-60 cell line screen, 48 h
786-0 renal = tested on: 786-0 renal
HCT-116 colon = tested on: HCT-116 colon
NCI-H460 lung = tested on: NCI-H460 lung
OVCAR-5 ovarian = tested on: OVCAR-5 ovarian
RPMI-8226 leukemia = tested on: RPMI-8226 leukemia
SF-268 CNS = tested on: SF-268 CNS
SF-539 CNS = tested on: SF-539 CNS
SR leukemia = tested on: SR leukemia
SW-620 colon = tested on: SW-620 colon
UO-31 renal = tested on: UO-31 renal

| SMILES | GI50 (786-0 renal) | TGI (786-0 renal) | GI50 (HCT-116 colon) [µM] | TGI (HCT-116 colon) | GI50 (NCI-H460 lung) [µM] | TGI (NCI-H460 lung) [µM] | GI50 (OVCAR-5 ovarian) [µM] | TGI (OVCAR-5 ovarian) | GI50 (RPMI-8226 leukemia) [µM] | TGI (RPMI-8226 leukemia) | GI50 (SF-268 CNS) | TGI (SF-268 CNS) | GI50 (SF-539 CNS) | TGI (SF-539 CNS) | GI50 (SR leukemia) [µM] | TGI (SR leukemia) [µM] | GI50 (SW-620 colon) [µM] | TGI (SW-620 colon) | GI50 (UO-31 renal) | TGI (UO-31 renal) [µM] |
| --- | --- | --- | --- | --- | --- | --- | --- | --- | --- | --- | --- | --- | --- | --- | --- | --- | --- | --- | --- | --- |
| COc1ccc(/C=C\c2cc(OC)c(OC)c(OC)c2)c(NS(=O)(=O)c2ccc(C(C)(C)C)cc2)c1O | 0.49 µM | 14.6 µM | 0.365 | 13.6 µM | 0.375 | 11 | 0.626 | 22.3 µM | 0.508 | 25.6 µM | 1.71 µM | 41.2 µM | 0.159 µM | 0.509 µM | 0.0453 | > 100 | 0.329 | 23.5 µM | 0.982 µM | 21.6 |
| CC(=O)OCC1OC(n2c(=S)n(-c3ccccc3)c(=O)c3cc(Br)cc(Br)c32)C(OC(C)=O)C(OC(C)=O)C1OC(C)=O (configuration not stated) | 25.7 µM and 98.7 µM | > 100 µM |  | > 100 µM |  | > 100 |  | > 100 µM | 33.3 | > 100 µM | 35.2 µM and 94.8 µM | > 100 µM | 43.9 µM and > 100 µM | > 100 µM | > 100 | > 100 |  | > 100 µM | > 100 µM and 42.9 µM | > 100 |
| COC(=O)[C@H](Cc1cn(C)cn1)NC(=O)[C@@H](NC(=O)Nc1cc(C(F)(F)F)cc(C(F)(F)F)c1)C(C)C | > 10 µM | > 10 µM | 1.82 | 3.55 µM | 3.53 | > 10 | > 10 | > 10 µM | 3.03 | > 10 µM | 2.02 µM | 4.87 µM | > 10 µM | > 10 µM | 3.08 | > 10 | 2.59 | 8.25 µM | > 10 µM | > 10 |
| O=c1[nH]c2ccc([N+](=O)[O-])c(Cl)c2c2ccccc12 |  | 48.3 µM |  | > 100 µM |  | 4.47 |  | 35.4 µM |  | 33.7 µM |  | 10.6 µM |  | 4.64 µM |  | 7.59 |  | 17.9 µM |  | 21.2 |
| O=C(Nc1ccc(C(F)(F)F)cc1[N+](=O)[O-])c1cccnc1 |  | > 100 µM |  | > 100 µM |  | 36.8 |  | > 100 µM |  | > 100 µM |  | 30.6 µM |  | 25.5 µM |  | > 100 |  | > 100 µM |  | > 100 |
| CCN1CCN(c2nc(NNC(=O)c3ccccc3)nc(N3CCN(C(c4ccccc4)c4ccccc4)CC3)n2)CC1 | 1.82 µM | 3.47 µM | 1.78 | 3.41 µM | 2.1 | 4.63 | 6.03 | 21.4 µM | 1.65 | 4.1 µM | 11.6 µM | 32.7 µM | 1.84 µM | 3.45 µM | 1.78 | 4.69 | 2.3 | 5.88 µM | 1.52 µM | 3.25 |
| Nc1ncc(C2[C@H](CNC(=O)c3cc(Br)c[nH]3)C(CNC(=O)c3cc(Br)c[nH]3)[C@@H]2c2cnc(N)[nH]2)[nH]1 (some centres not stated) | > 50 µM | > 50 µM | > 50 | > 50 µM | > 50 | > 50 | > 50 | > 50 µM | > 50 | > 50 µM | > 50 µM | > 50 µM | 8.79 µM | > 50 µM | 25.1 | > 50 | > 50 | > 50 µM | > 50 µM | > 50 |
| CC1OC(OC2C(O[C@H]3CC[C@@]4(C)C(=CC[C@H]5[C@@H]6C[C@@H]7O[C@]8(CC[C@@H](C)CO8)[C@@H](C)[C@@H]7[C@@]6(C)CC[C@@H]54)C3)OC(CO)C(OC3OC(CO)C(O)C3O)C2O)C(O)C(O)C1O (some centres not stated) | 0.221 µM | 1.34 µM and 0.464 µM | 1.26 | 1.6 µM and 2.52 µM |  | 1.53 | 1.32 | 1.53 µM and 2.59 µM | 0.212 | 2.71 µM and 0.586 µM |  | 1.61 µM and 2.03 µM | 0.343 µM | 1.3 µM and 1.08 µM |  | 2.25 | 0.195 | 2.57 µM and 0.419 µM |  | 1.5 |
| COc1ccc(/C=C/C(C)=N/OCC(=O)Nc2ccc(Cl)cc2)cc1 | 4.2 µM | 26.6 µM | 1.99 | 9.39 µM | 3.1 | 16.7 | 5.45 | > 77.3 µM | 1.89 | 6.21 µM | 4.2 µM | 49.4 µM | 3.16 µM | 13.4 µM | 2.24 | 10.6 | 3.13 | 20.1 µM | 1.67 µM | 22 |
| O=c1nc2[nH]c3c(-c4n[nH]c(=O)[nH]c4=O)cccc3c2n[nH]1 | > 100 µM | > 100 µM | > 100 | > 100 µM | > 100 | > 100 | > 100 | > 100 µM | > 100 | > 100 µM | > 100 µM | > 100 µM | > 100 µM | > 100 µM | > 100 | > 100 | > 100 | > 100 µM | > 100 µM | > 100 |
| O=C(Oc1ccc2c(c1)CN(Cc1ccccc1)CO2)c1ccccc1 |  | 30.7 µM |  | 30.6 µM |  | 36.1 |  | 33.6 µM |  | 52.7 µM |  | 33 µM |  | 32.3 µM |  | 69.2 |  | 56.4 µM |  | 31.8 |
| OCC#Cc1ccccc1C#Cc1ccc(C#Cc2ccccc2)cc1 | 23.5 µM | 55.9 µM | 16.6 | 32.3 µM | 20.5 | 79.8 | 17.7 | 34.9 µM | 6.05 | 22.2 µM | 23.7 µM | > 100 µM | 21.4 µM | 45.6 µM | 11.5 | 44.8 | 17.2 | 44.4 µM | 28.6 µM | > 100 |
| COC(=O)[C@]1(C)CCC[C@]2(C)[C@@H]1CCC13C[C@@H](C=CO1)[C@@H](C)CC32O (some centres not stated) | 89.5 µM | > 100 µM | 7.89 | > 100 µM | 43.8 | > 100 | > 100 | > 100 µM | 7.84 | 82 µM | > 100 µM | > 100 µM | 0.0516 µM | > 100 µM | 17.1 | > 100 | > 100 | > 100 µM | > 100 µM | > 100 |
| Nc1nc(=S)[nH]c(C(=O)Nc2nccs2)c1-c1ccccc1 |  | > 100 µM |  | > 100 µM |  | > 100 |  | > 100 µM |  | > 100 µM |  | > 100 µM |  | > 100 µM |  | > 100 |  | > 100 µM |  | > 100 |

— PubChem BioAssay (NCI)
